ChEMBL document CHEMBL4130583, “Artocarmins G-M, Prenylated 4-Chromenones from the Stems of Artocarpus rigida and Their Tyrosinase Inhibitory Activities” (J Nat Prod, 2017)

Tests used:
[1] = target: T1, Tyrosinase (Homo sapiens) (UniProt P14679); test: Potency index, ratio of kojic acid IC50 to compound IC50 for tyrosinase (unknown origin)
T1 sequence (whole entry): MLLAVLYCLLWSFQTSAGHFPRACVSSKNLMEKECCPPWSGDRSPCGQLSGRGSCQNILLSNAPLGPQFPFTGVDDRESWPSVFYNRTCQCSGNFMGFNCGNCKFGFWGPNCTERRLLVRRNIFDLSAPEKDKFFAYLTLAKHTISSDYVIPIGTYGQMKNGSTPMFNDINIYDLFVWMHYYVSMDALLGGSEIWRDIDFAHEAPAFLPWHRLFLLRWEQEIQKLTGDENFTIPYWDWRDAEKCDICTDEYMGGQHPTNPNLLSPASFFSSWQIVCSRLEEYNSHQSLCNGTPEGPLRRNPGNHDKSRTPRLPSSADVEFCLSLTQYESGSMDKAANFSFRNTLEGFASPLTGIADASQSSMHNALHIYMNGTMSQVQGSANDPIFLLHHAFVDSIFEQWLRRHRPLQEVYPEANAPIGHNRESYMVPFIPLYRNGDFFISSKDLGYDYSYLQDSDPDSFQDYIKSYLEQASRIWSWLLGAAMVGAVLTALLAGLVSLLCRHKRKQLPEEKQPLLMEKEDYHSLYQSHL

[2] = target: T2, Tyrosinase (Homo sapiens, UniProt P14679); test: Inhibition of tyrosinase (unknown origin) using L-dihydroxyphenylalanine as substrate preincubated for 30 mins followed by substrate addition measured for 7 mins by spectrophotometric analysis
T2 sequence (P14679 whole entry): T1 sequence (whole entry)

Compound | Ratio IC50 [1] | IC50 [2] [µM]
O=c1cc(-c2ccc(O)cc2O)oc2cc(O)cc(O)c12 [NORARTOCARPETIN] | 1900 | 0.023
COc1c(-c2oc3cc(O)cc(O)c3c(=O)c2CC=C(C)C)cc(O)c(O)c1CC=C(C)C | – | 45.3
